The results in this text go back to patent US9149465B2, “Isoxazolines as inhibitors of fatty acid amide hydrolase” (Infinity Pharmaceuticals, Inc., priority 2009, dated 2015).

The assay deals with T1, human FAAH (Homo sapiens, UniProt O00519).
T1 construct: host or cells: COS-7 cells, transient transfection; 13,000 g membrane fraction solubilised in 1% Triton X-100
T1 sequence (O00519 1-579): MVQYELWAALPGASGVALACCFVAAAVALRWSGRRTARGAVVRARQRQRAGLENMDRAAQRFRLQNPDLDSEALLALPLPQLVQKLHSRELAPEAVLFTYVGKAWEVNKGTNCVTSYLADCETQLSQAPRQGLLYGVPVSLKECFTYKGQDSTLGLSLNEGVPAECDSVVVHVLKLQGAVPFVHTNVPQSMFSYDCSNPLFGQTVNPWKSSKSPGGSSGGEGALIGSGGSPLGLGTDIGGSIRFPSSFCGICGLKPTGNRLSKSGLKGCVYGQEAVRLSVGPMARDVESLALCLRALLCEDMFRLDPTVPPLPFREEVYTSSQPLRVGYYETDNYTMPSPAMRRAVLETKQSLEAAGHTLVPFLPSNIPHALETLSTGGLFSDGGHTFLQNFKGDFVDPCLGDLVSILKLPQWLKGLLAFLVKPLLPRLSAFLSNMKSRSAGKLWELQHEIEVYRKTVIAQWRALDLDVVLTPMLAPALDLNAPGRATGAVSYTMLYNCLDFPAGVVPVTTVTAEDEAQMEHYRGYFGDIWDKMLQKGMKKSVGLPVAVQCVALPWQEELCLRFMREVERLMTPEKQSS
Kind of assay: Inhibition of human FAAH (AMC arachidonoyl amide fluorescence assay). The format is biochemical. The conditions noted are these: inhibitor preincubated 30 minutes at room temperature; 20 μM AMC arachidonoyl amide; 4 hours; read-out: Activity (Ki, inhibitors of human FAAH). On the procedure:
Human FAAH Preparation: COS-7 cells were split the day before, 1:5 into 150 mm x […] cell culture dishes (Corning Inc., Cat. No. 430599). Transient transfection took place at 30-40% confluency according to FuGENE 6 Transfection Reagent (Roche, Cat. No. 11814 443 001).
Transfection Procedure: The FuGENE transfection 6 reagent (45 uL) was added to 1410 μL of media (DMEM, serum free without pen/strep) in a 15 mL conical tube and incubated at room temp for 5 minutes, followed by the addition of FAAH plasmid DNA (15 μg) (OriGene Cat. No. TC119221, Genbank Accession No. NM_001441.1, 0.67 ug/uL) and a further incubation of 15 minutes at room temperature. The resulting solution was added into one dish of 30-40% confluent COS-7 cells in a drop-wise manner. The COS-7 cell dish was subsequently incubated for 48 hours. The cells are then harvested.
Harvest procedure: Media was aspirated from the dishes and the cells rinsed with 10 mL PBS. The PBS was removed and 3 mL of PBS added to the dish. The dish was scraped to resuspend the cells, and the subsequent cell suspension collected into a 15 mL conical tube. The cells were pelleted by centrifugation at 1200 rpm for 5 minutes in a bench top centrifuge. PBS was removed and the cell pellet snap frozen in liquid nitrogen and stored at −80° C.
COS-7 cells —FAAH purification: • (1) Fractionation: Frozen cell pellets from transient transfections were thawed on ice and resuspended in 12.5 mM Hepes pH 8.0, 100 mM NaCl, 1 mM EDTA (10 mL/0.2 g cell pellet). The pellets were dounce homogenized and then sonicated to produce cell extract. The cell extract was subsequently centrifuged at 1000 g to remove cellular debris. The pellet was discarded and the supernatant centrifuged at 13,000 g for 20 minutes. The pellet contained membrane bound FAAH. The supernatant was discarded and the pellet resolubilized. • (2) Re-solubilization: The fraction of interest, (13,000 g, membrane fraction) was re-suspended in 2.3 mL re-suspension buffer (20 mM Hepes pH 7.8, 10% v/v Glycerol, 1 mM EDTA, 1% Triton X-100) and the sample incubated on ice for 1 hour and then centrifuged to remove any particulate matter. The supernatant containing solubilized human FAAH was aliquoted and snap frozen in liquid nitrogen and stored at −80° C. until use. • (3) Characterization: Protein Concentration determined by Bradford assay. • SDS gel and Western blot to confirm presence of FAAH • FAAH activity assay • Km determination-96-well assay • Linear dependence—96-well assay • Standard compound Ki determination—384-well assay
Human FAAH assay; Experimental Protocol: A 0.1 mg/mL Human FAAH solution was made up in FAAH reaction buffer, and 24 ul pipeted into a 384 well plate. To this was added 1 μL of a 3 fold serially diluted inhibitor from a DMSO stock solution. The FAAH solution and inhibitor were incubated for 30 minutes at room temperature. The FAAH reaction was initiated by the addition of 25 μL of 40 μM AMC Arachidonoyl Amide in FAAH reaction buffer, yielding a final reaction human FAAH preparation concentration of 0.05 mg/ml and AMC-Arachidonoyl substrate concentration of 20 μM, reaction volume 50 μL. The reaction was allowed to proceed for 4 hours at room temperature. The reaction was stopped by the addition of 25 μL 12 μM a-ketoheterocycle (Cayman Chemicals, catalogue #10435). The microtiter plate was read in the envision plate reader.
The raw fluorescence was plotted on the y axis and the inhibitor concentration on the x axis to give a dose response inhibition curve. The data was fitted to a single site competitive inhibition equation, fixing the Km for the human enzyme to 12 μM and 9 μM respectively.
As to `c1ccc(Oc2ccc(C3CC(n4cncn4)=NO3)cc2)cc1` (single isomer, unassigned) [I-34], the Ki is ≥ 1000 nM. Under `c1ccc(-c2ccc([C@H]3CC(Oc4cncnc4)=NO3)cc2)cc1` (racemic) [I-103] stands ≤ 100 nM.

`BrC1=NO[C@H](Cc2ccccc2)C1` (single isomer, unassigned) [I-48]: the Ki is ≥ 1000 nM. To `CC1(c2ccc(OC(F)(F)F)cc2)CC(Oc2ccc(-c3ccn[nH]3)nc2)=NO1` (racemic) [I-242] belongs ≤ 100 nM; to `FC1(F)Oc2ccc(C3CC(Br)=NO3)cc2O1` (racemic) [I-126], ≤ 100 nM; to `Cc1nnc(-c2ccc(OC3=NOC(c4ccc(C(F)(F)F)cc4)C3)cn2)o1` (racemic) [I-259], ≤ 100 nM.

With `COc1cncc(OC2=NOC(c3ccc(Oc4ccccc4)cc3)C2)c1` (racemic) [I-65], the Ki was ≤ 100 nM. To `COc1ccc([C@H]2CC(Oc3cccnc3)=NO2)cc1` (racemic) [I-38] belongs 100 to 1000 nM. With `COC(=O)c1ccc(OC2=NO[C@@H](c3ccc(Br)cc3)C2)cn1` (racemic) [I-149], the Ki is ≤ 100 nM. In the case of `COC(=O)CNC(=O)c1ccc(OC2=NOC(c3ccc(OC(F)(F)F)cc3)C2)cn1` (racemic) [I-105], the Ki was ≤ 100 nM. Under `CC(C)Oc1ccc([C@H]2CC(Br)=NO2)cc1` (racemic) [I-15] stands ≤ 100 nM; under `c1ccc(Oc2ccc(C3CC(N4CCCC4)=NO3)cc2)cc1` (racemic) [I-256], ≥ 1000 nM. On to `NC(=O)CCc1ccc(OC2=NOC(c3ccc(Oc4ccccc4)cc3)C2)cn1` (racemic) [I-100], for which the Ki was ≤ 100 nM. For the compound `BrC1=NO[C@@H](c2ccc3c(c2)OCO3)C1` (racemic) [I-16], the Ki is ≤ 100 nM. In the case of `O=C(O)CCc1ccc(OC2=NOC(c3ccc(OC(F)(F)F)cc3)C2)cn1` (racemic) [I-128], the Ki was ≤ 100 nM. For the compound `Cc1nnc(-c2ccc(OC3=NOC(c4ccc(OC(F)(F)F)cc4)C3)cn2)o1` (racemic) [I-157], the Ki is ≤ 100 nM. Under `CCN(C1=NOC(c2ccc(OC(F)(F)F)cc2)C1)c1ccccc1` (racemic) [I-253] stands ≥ 1000 nM; under `O=C(O)c1ccc(-c2ccc(OC3=NOC(c4ccc(OC(F)(F)F)cc4)C3)cn2)s1` (racemic) [I-193], 100 to 1000 nM; under `O=S(=O)(c1ccc(OC2=NOC(c3ccc(OC(F)(F)F)cc3)C2)cn1)C1CCCC1` (racemic) [I-183], 100 to 1000 nM. Under `Cc1nnc(-c2ccc(OC3=NOC(c4ccc(Oc5ccccc5)cc4)C3)cc2)o1` (racemic) [I-159] stands ≤ 100 nM; under `CCCCc1ccc(C2CC(Oc3ccc(S(C)(=O)=O)nc3)=NO2)cc1` (racemic) [I-181], ≤ 100 nM. To `CS(=O)(=O)c1ccc(OC2=NOC(c3ccc(Oc4ccccc4)cc3)C2)cc1` (single isomer, unassigned) [I-30] belongs ≤ 100 nM; to `O=C(O)CNC(=O)c1ccc(OC2=NOC(c3ccc(OC(F)(F)F)cc3)C2)cn1` (racemic) [I-106], ≤ 100 nM. Consider `Cn1nccc1-c1ccc(OC2=NOC(c3ccc(OC(F)(F)F)cc3)C2)cn1` (racemic) [I-189], for which the Ki was ≤ 100 nM. Under `CSc1ncc(OC2=NOC(c3ccc(OC(F)(F)F)cc3)C2)cn1` (racemic) [I-132] stands 100 to 1000 nM.

`BrC1=NO[C@@H](c2ccc(Br)cc2)C1` (racemic) [I-148]: the Ki was ≤ 100 nM. Take `O=C(O)c1ccc(SC2=NOC(c3ccc(OC(F)(F)F)cc3)C2)cc1` (racemic) [I-251]: the Ki was ≥ 1000 nM.

As to `O[C@H](CNC1=NOC(c2ccc(Oc3ccccc3)cc2)C1)c1ccccc1` (mixture of isomers) [I-245], the Ki is ≥ 1000 nM. Under `c1ccc(C2CC(Oc3cncnc3)=NO2)cc1` (racemic) [I-166] stands 100 to 1000 nM.

With `O=C(O)c1ccc(OC2=NOC(c3ccc(C(F)(F)F)cc3)C2)cn1` (racemic) [I-170], the Ki was ≤ 100 nM. To `O=[N+]([O-])c1ccc(OC2=NOC(c3ccc(Oc4ccccc4)cc3)C2)cc1` (single isomer, unassigned) [I-29] belongs 100 to 1000 nM. To `FC(F)(F)Oc1ccc(C2CC(Oc3ccc(-c4ccccc4)nc3)=NO2)cc1` (racemic) [I-86] belongs 100 to 1000 nM; to `COC(=O)c1cncc(OC2=NOC(c3ccc(OC(F)(F)F)cc3)C2)c1` (single isomer, unassigned) [I-46], 100 to 1000 nM.

For the compound `Fc1cc([C@H]2CC(Oc3cncnc3)=NO2)ccc1OC(F)(F)F` (racemic) [I-121], the Ki is ≤ 100 nM. For `c1ccc(Oc2ccc(C3CC(Oc4cnc5ccccc5c4)=NO3)cc2)cc1` (single isomer, unassigned) [I-42], the Ki is ≤ 100 nM.

On to `Fc1ccc([C@H]2CC(Br)=NO2)cc1` (racemic) [I-2], for which the Ki fell in the range of 100 to 1000 nM. Under `O=C(O)c1cccc(-c2ccc(OC3=NOC(c4ccc(OC(F)(F)F)cc4)C3)cn2)c1` (racemic) [I-85] stands 100 to 1000 nM; under `CS(=O)(=O)c1ncc(OC2=NOC(c3ccc(OC(F)(F)F)cc3)C2)cn1` (racemic) [I-133], ≤ 100 nM; under `CC1(c2ccc(OC(F)(F)F)cc2)CC(Oc2ccc(C(=O)NO)nc2)=NO1` (racemic) [I-117], ≤ 100 nM. Under `FC(F)(F)Oc1ccc(C2CC(Oc3ccc(-c4ccco4)nc3)=NO2)cc1` (racemic) [I-186] stands ≤ 100 nM; under `CNC(=O)c1ccc(OC2=NOC(c3ccc(OC(F)(F)F)cc3)C2)cn1` (racemic) [I-107], ≤ 100 nM; under `c1ccc(-c2ccc([C@H]3CC(Oc4cccnc4)=NO3)cc2)cc1` (racemic) [I-101], ≤ 100 nM. To `FC(F)(F)Oc1ccc(C2CC(Oc3ccc(-c4ccn[nH]4)nc3)=NO2)cc1` (racemic) [I-192] belongs ≤ 100 nM; to `N#Cc1ccccc1OC1=NOC(c2ccc(Oc3ccccc3)cc2)C1` (single isomer, unassigned) [I-28], ≥ 1000 nM; to `ClC1=NOC(c2ccc(Oc3ccccc3)cc2)C1` (single isomer, unassigned) [I-17], ≤ 100 nM. Consider `FC1(F)Oc2ccc([C@H]3CC(Oc4cncnc4)=NO3)cc2O1` (racemic) [I-127], for which the Ki lay within 100 to 1000 nM. Under `Clc1ccccc1C1CC(Br)=NO1` (single isomer, unassigned) [I-5] stands 100 to 1000 nM; under `FC(F)(F)Oc1ccc([C@H]2CC(Br)=NO2)cc1Cl` (racemic) [I-124], ≤ 100 nM; under `FC(F)(F)Oc1ccc(C2CC(Oc3cccc(-n4cnnc4)c3)=NO2)cc1` (racemic) [I-221], ≥ 1000 nM. Consider `Cc1noc(-c2cccc(OC3=NOC(c4ccc(OC(F)(F)F)cc4)C3)c2)n1` (racemic) [I-199], for which the Ki was ≥ 1000 nM.
